# Source: US4031211A, “Adriamycin esters, their preparation and use” (priority 1975, dated 1977)
# Read-outs that look alike come from different tables or passages of the source.
# How the values were obtained:
# L 1210 leukemia = assay: Antitumor effect on L 1210 leukemia in mice
# Experimental: (§1) The compounds according to the invention were tested on several in vitro systems and experimental mouse tumors, in comparison with adriamycin.
# Ascites sarcoma 180 = assay: Antitumor effect on ascites sarcoma 180 in mice; settings: for LTS (long term survivors, > 60 days) / TC (median survival time as compared to untreated controls) / TOX (mice which showed toxic lesions at the autopsy): Table 1
# Experimental: as §1
# [1] = tested on: experimental mouse tumors; assay: Antitumor/therapeutic activity and toxicity in experimental mouse tumors, overall statements; format: in vivo
# Gross leukemia = assay: Antitumor effect on Gross leukemia in mice; settings: for TC (median survival time as compared to untreated controls) / TOX (mice which showed toxic lesions at the autopsy): Table 1
# Experimental: as §1
# solid sarcoma 180 = settings: Table 2, i.v. per 5 days
# Experimental: as §1
# [2] = Table 4, i.p. on day 1, 2 mg./kg.
# [3] = Table 4, i.p. on day 1, 4 mg./kg.
# [4] = Table 4, i.p. on day 1, 8 mg./kg.
# [5] = Table 1, first experiment, ip, day 1, 0.2 mg./kg.
# [6] = Table 1, first experiment, ip, day 1, 1 mg./kg.
# [7] = Table 1, first experiment, ip, day 1, 5 mg./kg.
# [8] = Table 1, first experiment, ip, day 1, 10 mg./kg.
# [9] = Table 1, second experiment, ip, day 1, 10 mg./kg.
# [10] = Table 1, second experiment, ip, day 1, 12 mg./kg.
# [11] = Table 1, second experiment, ip, day 1, 15 mg./kg.
# [12] = Table 4, i.p. on day 1, 10 mg./kg.
# [13] = Table 5, second experiment, iv, days 1,2,3, 3.5 mg./kg.
smiles,measurement,setting,value
"CCCCCC(=O)OCC(=O)OCC(=O)C1(O)Cc2c(O)c3c(c(O)c2C(OC2CC(N)C(O)C(C)O2)C1)C(=O)c1c(OC)cccc1C3=O.Cl (stereo not shown) [adriamycin-14-0-hexanoyl glycolate, Adriamycin-14-0-Hexanoyl Glycolate Hydrochloride]",TC,L 1210 leukemia; [2],133%
same,TC,L 1210 leukemia; [3],144%
same,LTS,L 1210 leukemia; [4],1/9
same,TC,L 1210 leukemia; [4],155%
same,LTS,Ascites sarcoma 180; [2],1/10
same,TC,Ascites sarcoma 180; [2],250%
same,LTS,Ascites sarcoma 180; [3],5/10
same,TC,Ascites sarcoma 180; [3],493%
same,LTS,Ascites sarcoma 180; [4],3/10
same,TC,Ascites sarcoma 180; [4],346%
same,TC,"Ascites sarcoma 180; Table 4, i.p. on day 1, 16 mg./kg.",128%
same,toxicity compared with adriamycin,[1],less toxic
same,activity compared with adriamycin,[1]; tumor not given,as active as adriamycin
"CCCCCCCCCCCCCCCCCC(=O)OCC(=O)OCC(=O)C1(O)Cc2c(O)c3c(c(O)c2C(OC2CC(N)C(O)C(C)O2)C1)C(=O)c1c(OC)cccc1C3=O.Cl (stereo not shown) [adriamycin-14-0-stearoyl glycolate, Adriamycin-14-0-Stearoyl Glycolate Hydrochloride]",antitumor activity compared with adriamycin,L 1210 leukemia,as active as adriamycin
same,toxicity compared with adriamycin,L 1210 leukemia,less toxic
same,TC (median survival time as compared to untreated controls),L 1210 leukemia; [5],100%
same,TC (median survival time as compared to untreated controls),L 1210 leukemia; [6],133%
same,TOX (mice which showed toxic lesions at the autopsy),L 1210 leukemia; [6],1/10
same,TC (median survival time as compared to untreated controls),L 1210 leukemia; [7],133%
same,TC (median survival time as compared to untreated controls),L 1210 leukemia; [8],139%
same,TC (median survival time as compared to untreated controls),L 1210 leukemia; [9],128%
same,TC (median survival time as compared to untreated controls),L 1210 leukemia; [10],150%
same,TC (median survival time as compared to untreated controls),L 1210 leukemia; [11],150%
same,antitumor effect compared with adriamycin,Ascites sarcoma 180,not significantly different from that of adriamycin
same,"LTS (long term survivors, > 60 days)","Ascites sarcoma 180; ip, day 1, 0.3 mg./kg.",1/10
same,TC (median survival time as compared to untreated controls),"Ascites sarcoma 180; ip, day 1, 0.3 mg./kg.",119%
same,"LTS (long term survivors, > 60 days)","Ascites sarcoma 180; ip, day 1, 1.6 mg./kg.",2/10
same,TC (median survival time as compared to untreated controls),"Ascites sarcoma 180; ip, day 1, 1.6 mg./kg.",222%
same,TOX (mice which showed toxic lesions at the autopsy),"Ascites sarcoma 180; ip, day 1, 1.6 mg./kg.",1/10
same,"LTS (long term survivors, > 60 days)","Ascites sarcoma 180; ip, day 1, 7.8 mg./kg.",1/10
same,TC (median survival time as compared to untreated controls),"Ascites sarcoma 180; ip, day 1, 7.8 mg./kg.",187%
same,TOX (mice which showed toxic lesions at the autopsy),"Ascites sarcoma 180; ip, day 1, 7.8 mg./kg.",1/10
same,antitumor activity compared with adriamycin,Gross leukemia,as active as adriamycin
same,toxicity compared with adriamycin,Gross leukemia,less toxic
same,TC (median survival time as compared to untreated controls),"Gross leukemia; iv, days 1,2,3, 4.5 mg./kg.",143%
same,TOX (mice which showed toxic lesions at the autopsy),"Gross leukemia; iv, days 1,2,3, 4.5 mg./kg.",1/10
same,TC (median survival time as compared to untreated controls),"Gross leukemia; iv, days 1,2,3, 6 mg./kg.",186%
same,TC (median survival time as compared to untreated controls),"Gross leukemia; iv, days 1,2,3, 7.5 mg./kg.",186%
same,TC (median survival time as compared to untreated controls),"Gross leukemia; iv, days 1,2,3, 9 mg./kg.",207%
same,% tumor growth at day 11,solid sarcoma 180; 2.5 mg./kg.,58%
same,% tumor growth at day 11,solid sarcoma 180; 3 mg./kg.,58%
same,% tumor growth at day 11,solid sarcoma 180; 3.5 mg./kg.,52%
same,% tumor growth at day 11,solid sarcoma 180; 4 mg./kg.,37%
"CCCCCC(=O)SCC(=O)OCC(=O)C1(O)Cc2c(O)c3c(c(O)c2C(OC2CC(N)C(O)C(C)O2)C1)C(=O)c1c(OC)cccc1C3=O.Cl (stereo not shown) [adriamycin-14-0-hexanoyl thioglycolate, Adriamycin-14-0-Hexanoyl Thioglycolate Hydrochloride]",antitumor activity compared with adriamycin,L 1210 leukemia,"marked anti-tumor effect, slightly lower than that of adriamycin"
same,TC,"L 1210 leukemia; Table 3, ip, day 1, 4 mg./kg.",133%
same,TC,"L 1210 leukemia; Table 3, ip, day 1, 8 mg./kg.",155%
same,LTS,"L 1210 leukemia; Table 3, ip, day 1, 16 mg./kg.",2/9
same,TC,"L 1210 leukemia; Table 3, ip, day 1, 16 mg./kg.",170%
same,antitumor effect compared with adriamycin,Ascites sarcoma 180,"marked anti-tumor effect, slightly lower than that of adriamycin"
same,LTS,"Ascites sarcoma 180; Table 3, ip, day 1, 2 mg./kg.",1/10
same,TC,"Ascites sarcoma 180; Table 3, ip, day 1, 2 mg./kg.",153%
same,TOX,"Ascites sarcoma 180; Table 3, ip, day 1, 2 mg./kg.",1/10
same,LTS,"Ascites sarcoma 180; Table 3, ip, day 1, 4 mg./kg.",2/10
same,TC,"Ascites sarcoma 180; Table 3, ip, day 1, 4 mg./kg.",196%
same,TOX,"Ascites sarcoma 180; Table 3, ip, day 1, 4 mg./kg.",1/10
same,LTS,"Ascites sarcoma 180; Table 3, ip, day 1, 8 mg./kg.",2/10
same,TC,"Ascites sarcoma 180; Table 3, ip, day 1, 8 mg./kg.",177%
same,TC,"Ascites sarcoma 180; Table 3, ip, day 1, 16 mg./kg.",188%
same,TOX,"Ascites sarcoma 180; Table 3, ip, day 1, 16 mg./kg.",6/10
same,toxicity compared with adriamycin,[1],less toxic
COc1cccc2c1C(=O)c1c(O)c3c(c(O)c1C2=O)C[C@@](O)(C(=O)CO)C[C@@H]3O[C@H]1C[C@H](N)[C@H](O)[C@H](C)O1 [Adriamycin],TC (median survival time as compared to untreated controls),L 1210 leukemia; [5],111%
same,TC (median survival time as compared to untreated controls),L 1210 leukemia; [6],133%
same,TC (median survival time as compared to untreated controls),L 1210 leukemia; [7],139%
same,TC (median survival time as compared to untreated controls),L 1210 leukemia; [8],150%
same,TOX (mice which showed toxic lesions at the autopsy),L 1210 leukemia; [8],3/10
same,"LTS (long term survivors, > 60 days)",L 1210 leukemia; [9],1/10
same,TC (median survival time as compared to untreated controls),L 1210 leukemia; [9],139%
same,TOX (mice which showed toxic lesions at the autopsy),L 1210 leukemia; [9],1/10
same,TC (median survival time as compared to untreated controls),L 1210 leukemia; [10],167%
same,TOX (mice which showed toxic lesions at the autopsy),L 1210 leukemia; [10],2/10
same,TC (median survival time as compared to untreated controls),L 1210 leukemia; [11],100%
same,TOX (mice which showed toxic lesions at the autopsy),L 1210 leukemia; [11],6/10
same,TC,"L 1210 leukemia; Table 3, ip, day 1, 2.5 mg./kg.",122%
same,TC,"L 1210 leukemia; Table 3, ip, day 1, 5 mg./kg.",155%
same,LTS,"L 1210 leukemia; Table 3, ip, day 1, 10 mg./kg.",2/9
same,TC,"L 1210 leukemia; Table 3, ip, day 1, 10 mg./kg.",233%
same,TOX,"L 1210 leukemia; Table 3, ip, day 1, 10 mg./kg.",2/9
same,TC,"L 1210 leukemia; Table 4, i.p. on day 1, 2.5 mg./kg.",122%
same,TC,"L 1210 leukemia; Table 4, i.p. on day 1, 5 mg./kg.",155%
same,LTS,L 1210 leukemia; [12],2/9
same,TC,L 1210 leukemia; [12],233%
same,TOX,L 1210 leukemia; [12],2/9
same,TC,"L 1210 leukemia; Table 5, ip, day 1, 2.5 mg./kg.",122%
same,TC,"L 1210 leukemia; Table 5, ip, day 1, 5 mg./kg.",155%
same,LTS,"L 1210 leukemia; Table 5, ip, day 1, 10 mg./kg.",2/9
same,TC,"L 1210 leukemia; Table 5, ip, day 1, 10 mg./kg.",233%
same,TOX,"L 1210 leukemia; Table 5, ip, day 1, 10 mg./kg.",2/9
same,"LTS (long term survivors, > 60 days)","Ascites sarcoma 180; ip, day 1, 1 mg./kg.",3/10
same,TC (median survival time as compared to untreated controls),"Ascites sarcoma 180; ip, day 1, 1 mg./kg.",243%
same,TOX (mice which showed toxic lesions at the autopsy),"Ascites sarcoma 180; ip, day 1, 1 mg./kg.",0/10
same,"LTS (long term survivors, > 60 days)","Ascites sarcoma 180; ip, day 1, 5 mg./kg.",3/10
same,TC (median survival time as compared to untreated controls),"Ascites sarcoma 180; ip, day 1, 5 mg./kg.",150%
same,TOX (mice which showed toxic lesions at the autopsy),"Ascites sarcoma 180; ip, day 1, 5 mg./kg.",0/10
same,LTS,"Ascites sarcoma 180; Table 3, ip, day 1, 2 mg./kg.",1/10
same,TC,"Ascites sarcoma 180; Table 3, ip, day 1, 2 mg./kg.",203%
same,LTS,"Ascites sarcoma 180; Table 3, ip, day 1, 4 mg./kg.",2/10
same,TC,"Ascites sarcoma 180; Table 3, ip, day 1, 4 mg./kg.",242%
same,LTS,"Ascites sarcoma 180; Table 3, ip, day 1, 8 mg./kg.",2/10
same,TC,"Ascites sarcoma 180; Table 3, ip, day 1, 8 mg./kg.",127%
same,TOX,"Ascites sarcoma 180; Table 3, ip, day 1, 8 mg./kg.",8/10
same,LTS,Ascites sarcoma 180; [2],4/10
same,TC,Ascites sarcoma 180; [2],271%
same,LTS,Ascites sarcoma 180; [3],5/10
same,TC,Ascites sarcoma 180; [3],493%
same,TOX,Ascites sarcoma 180; [3],1/10
same,LTS,Ascites sarcoma 180; [4],3/10
same,TC,Ascites sarcoma 180; [4],317%
same,TOX,Ascites sarcoma 180; [4],4/10
same,LTS,"Ascites sarcoma 180; Table 5, ip, day 1, 2 mg./kg.",4/10
same,TC,"Ascites sarcoma 180; Table 5, ip, day 1, 2 mg./kg.",271%
same,LTS,"Ascites sarcoma 180; Table 5, ip, day 1, 4 mg./kg.",5/10
same,TC,"Ascites sarcoma 180; Table 5, ip, day 1, 4 mg./kg.",493%
same,TOX,"Ascites sarcoma 180; Table 5, ip, day 1, 4 mg./kg.",1/10
same,LTS,"Ascites sarcoma 180; Table 5, ip, day 1, 8 mg./kg.",3/10
same,TC,"Ascites sarcoma 180; Table 5, ip, day 1, 8 mg./kg.",317%
same,TOX,"Ascites sarcoma 180; Table 5, ip, day 1, 8 mg./kg.",4/10
same,TC (median survival time as compared to untreated controls),"Gross leukemia; iv, days 1,2,3, 3.5 mg./kg.",143%
same,TOX (mice which showed toxic lesions at the autopsy),"Gross leukemia; iv, days 1,2,3, 3.5 mg./kg.",1/10
same,TC (median survival time as compared to untreated controls),"Gross leukemia; iv, days 1,2,3, 4.5 mg./kg.",171%
same,TOX (mice which showed toxic lesions at the autopsy),"Gross leukemia; iv, days 1,2,3, 6 mg./kg.",4/10
same,TC,"Gross leukemia; Table 5, first experiment, iv, days 1,2,3, 3.5 mg./kg.",157%
same,TC,"Gross leukemia; Table 5, first experiment, iv, days 1,2,3, 4.5 mg./kg.",178%
same,TC,Gross leukemia; [13],143%
same,TOX,Gross leukemia; [13],1/10
same,TC,"Gross leukemia; Table 5, second experiment, iv, days 1,2,3, 4.5 mg./kg.",171%
same,% tumor growth at day 11,solid sarcoma 180; 2.5 mg./kg.,42%
same,% tumor growth at day 11,solid sarcoma 180; 3 mg./kg.,33%
